# “And” between values parts separate entries of the source, which are not always exact repeats. Equal values may be shown once. Read-outs that look alike come from different tables or passages of the source.
# What was measured:
# [1] = tested on: Mtb ribosome; format: biochemical, Mycobacterium tuberculosis
# [2] = tested on: Mtb methylated ribosome; assay: Mtb in vitro translation assay with methylated (erythromycin-treated) ribosome; format: biochemical, Mycobacterium tuberculosis
# [3] = tested on: Mtb H37Rv; assay: microbe, parasite or virus in culture; format: cell-based, Mycobacterium tuberculosis; settings: read-out: MIC for Mtb in liquid culture
# [4] = tested on: GFP-expressing Mtb H37Rv in RAW264.7 macrophages; assay: Intramacrophage assay (MIC for Mtb in macrophages); format: cell-based, Mycobacterium tuberculosis
# [5] = format: in vitro ADME, human
# Experimental: The metabolic stability of test compounds was determined as described.[57]^,[58] Incubation and experimental conditions with human hepatic microsomal fractions (purchased from BD Gentest as a pooled batch from 6 donors) were as follows: microsomal proteins, 1 mg/mL; bovine serum albumin, 1 mg/mL; substrate, 5 μM; incubation duration, 20 min; cytochrome P-450 monooxygenases (CYPs) and flavin containing monooxygenases (FMOs) cofactor, 1 mM NADPH. Enzyme activity was stopped with 1 volume of acetonitrile. […] For each test compound and for each microsomal preparation, three incubations were prepared: absolute reference in buffer (without enzyme material, i.e., microsomes); incubation without NADPH cofactor (with microsomal fractions); and incubation with NADPH (with microsomal fractions). For most compounds, biotransformation, as observed in hepatic microsomal fractions in the presence of the NADPH cofactor, consists of oxidative reactions catalyzed by either CYPs or FMOs. In these conditions, the percentage of total metabolism, which corresponds to oxidative metabolism, was determined as follows: [% total metabolism] ≈ [% oxidative metabolism] = [unchanged compound (UC) peak area − NADPH UC peak area + NADPH] × 100%, where NADPH corresponds to the enzyme cofactor for oxidation reactions catalyzed by either CYP or FMO.
# [6] = format: in vitro ADME
# [7] = format: in vitro ADME; remark: listed apart in the source
# [8] = format: in vitro ADME; remark: listed apart in the source
# [9] = target: T1, CYP3A4 (Homo sapiens, UniProt P08684); assay: CYP3A4 reversible inhibition in human liver microsomes; format: in vitro ADME
# T1 construct: human liver microsomes (purchased from BD Gentest as a pooled batch from 150 donors); tissue BD Gentest Cat#452117; host or cells: pooled human liver microsomes (150 donors)
# T1 sequence (P08684 whole entry): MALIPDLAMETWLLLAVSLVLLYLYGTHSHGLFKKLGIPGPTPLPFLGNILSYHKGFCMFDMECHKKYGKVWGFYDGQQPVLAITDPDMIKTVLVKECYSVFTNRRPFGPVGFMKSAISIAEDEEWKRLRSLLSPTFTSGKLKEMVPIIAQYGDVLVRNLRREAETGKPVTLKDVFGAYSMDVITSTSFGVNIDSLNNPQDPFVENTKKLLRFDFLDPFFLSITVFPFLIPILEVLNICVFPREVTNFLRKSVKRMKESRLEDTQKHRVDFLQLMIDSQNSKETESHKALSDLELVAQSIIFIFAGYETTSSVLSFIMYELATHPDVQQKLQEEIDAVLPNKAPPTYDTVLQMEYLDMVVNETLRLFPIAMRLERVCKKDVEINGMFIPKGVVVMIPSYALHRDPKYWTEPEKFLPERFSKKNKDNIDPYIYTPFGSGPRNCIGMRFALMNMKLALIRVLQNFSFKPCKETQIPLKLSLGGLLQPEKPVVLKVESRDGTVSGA
# Experimental: Incubations were performed with 0.1 mg/mL human liver microsomes (purchased from BD Gentest as a pooled batch from 150 donors) in a final incubation volume of 0.25 mL. The incubation medium contained 0.05 M phosphate buffer (pH 7.4) containing an NADPH regenerating system (including 1.3 mM NADP, 3.3 mM glucose 6-phosphate,3.3 mM MgCl2, and 1.0 U/mL glucose 6-phosphate dehydrogenase). Probe CYP3A4 substrates (midazolam at 3 μM and testosterone at 50 μM), were incubated for 10 and 30 min, respectively, with increasing concentrations of GM, MGM or CGM (concentration range: 1 - 30 μM). The reaction was stopped by adding acetonitrile to precipitate the proteins. The incubation mixtures were then centrifuged for 5 min at 10,000 × g, and an aliquot of the supernatant was analyzed using high-performance liquid chromatography coupled to mass spectrometry for the assessment of 1’-hydroxymidazolam and 6β-hydroxytestosterone metabolite formation.
# [10] = physchem; format: physicochemical
# [11] = in vitro; format: in vitro ADME; settings: human, Caco-2; read-out: Permeability in Caco2 cells (Papp)
# [12] = tested on: M. bovis BCG Pasteur; assay: microbe, parasite or virus in culture; format: cell-based, Mycobacterium bovis; settings: for MIC: read-out: MIC in Pasteur M. bovis BCG
# [13] = tested on: RAW264.7 cells; format: in vitro ADME, murine; settings: versus neutral analog SEQ-416
# Experimental: RAW264.7 cells were allowed to adhere in 96 wells plates for 4 hours before compounds were added at 10 μM. Intracellular concentrations were measured by LC-MS/MS after cellular lysis. For each point, up to 4 hours, the Intra/Extra cellular ratio was calculated. Points are the mean ± SD of four tests. Clarithromycin and Azithromycin were used as references.
# [14] = pH 2, 50% acetonitrile/water
# [15] = in vivo; settings: male, Swiss, mouse, po; for AUC: 30 mg/kg, oral 30 mg/kg
# [16] = physchem; settings: pH 7.4
# [17] = physchem
# [18] = tested on: Mtb H37Rv; assay: MIC80 after overnight pre-incubation of Mtb with subinhibitory macrolide; format: cell-based; settings: Mycobacterium tuberculosis, read-out: MIC80
# [19] = tested on: erm37 mRNA; format: cell-based, Mycobacterium tuberculosis; settings: inducer at 0.25µg/ml overnight, normalized to 23S
# [20] = Mycobacterium tuberculosis variant bovis BCG, BCG
smiles,measurement,setting,value
"CON=C1C[C@@H](C)O[C@@H](O[C@@H]2[C@@H](C)[C@H](O[C@H]3C[C@@H](C)N(C)C[C@H](C)O3)[C@@H](C)C(=O)O[C@H](C(C)CO[C@@H]3O[C@H](C)[C@@H](O)[C@@H](OC)[C@H]3OC)[C@H](C)[C@@H](OC(=O)CC(C)C)[C@@H](C)C(=O)[C@@](C)(OC(=O)NCc3ccccc3)C[C@@H]2C)[C@@H]1O (stereo partly drawn) [SEQ-372, (2R,3S,4R,5R,7S,9S,10S,11R,12S,13R)-7-[(benzylcarbamoyl)oxy]-2-(1-{[(2R,3R,4R,5R,6R)-5-hydroxy-3,4-dimethoxy-6-methyltetrahydro-2H-pyran-2-yl]oxy}propan-2-yl)-10-{[(2S,3R,6R)-3-hydroxy-4-(methoxyimino)-6-methyltetrahydro-2H-pyran-2-yl]oxy}-3,5,7,9,11,13-hexamethyl-6,14-dioxo-12-{[(2S,5R,7R)-2,4,5-trimethyl-1,4-oxazepan-7-yl]oxy}oxacyclotetradecan-4-yl 3-methylbutanoate]",IC50,[1]; read-out: Inhibition of Mtb translation (IC50 μM),0.039 µM
same,IC50,[2]; read-out: Translation inhibition of Mtb methylated ribosome (IC50 μM),0.054 µM
same,MIC,"[3]; Mycobacterium tuberculosis, H37RV",0.54 µM
same,MIC,"[4]; Mycobacterium tuberculosis, H37RV, read-out: MIC for Mtb tuberculosis in macrophages",0.06 µM
same,Increased potency against Mtb in the macrophage compared with SEQ-416,[4]; versus SEQ-416,approximately 10 fold
same,Metabolic stability in human liver microsomes (% metabolized compound after 20 min),[5]; 20 min incubation,33%
same,"Metabolic stability in human liver microsomes (% metabolized compound after 20 min), (K)",[5]; in presence of ketoconazole CYP3A inhibitor (K),19(K) %
same,"Metabolic stability in human liver microsomes (% metabolized compound after 20 min), (Q)",[5]; in presence of quinidine CYP2D6 inhibitor (Q),/32 (Q) %
same,Metabolic stability in mouse liver microsomes (% metabolized compound after 20 min),[6],8%
same,Metabolic stability in rat liver microsomes (% metabolized compound after 20 min),[7],22%
same,Metabolic degradation/clearance from human liver microsomes,[8],0.006 mL/h/10^6 hepatocytes
same,Cytochrome 3A4 inhibition (in words),"[9]; human, pH 7.4",inhibited cytochrome 3A4
same,IC50,"[9]; midazolam, read-out: CYP3A4 inhibition, IC50 with midazolam as substrate",1200 nM
same,IC50,"[9]; testosterone, read-out: CYP3A4 inhibition, IC50 with testosterone as substrate (T)",3800 nM
same,solubility,"[10]; MCT pH 7.4, read-out: Solubility: MCT@pH 7.4",1420 µg/mL
same,solubility,"[10]; aqueous buffer, PBS pH 7.4, read-out: Solubility: PBS@pH 7.4",58.8 µg/mL
same,Papp,[11],2.2 ×10⁻⁶ cm/s
same,Growth inhibition (MIC80),[12],0.29 µM and 0.25 µM and 0.34 µM
same,MIC80,"[12]; Mycobacterium tuberculosis variant bovis BCG, BCG, read-out: Growth inhibition (MIC80)",0.28 µM
same,MIC,[12]; [20],0.28 µM
same,Increase in macrophage accumulation compared with SEQ-416,[13],20 fold
same,Chemical stability: t/12@pH 2,[14],∼25 h
same,bioavailability,[15],17%
same,AUC,"[15]; AUC in lung @30 mg/kg, lung",18000 ng·h/mL
same,AUC,"[15]; AUC in plasma @30 mg/kg, plasma",900 ng·h/mL
same,logD,[16],4.93
same,pKa,[17],8.2
CC[C@H]1OC(=O)[C@H](C)[C@@H](O[C@H]2C[C@@](C)(OC)[C@@H](O)[C@H](C)O2)[C@H](C)[C@@H](O[C@@H]2O[C@H](C)C[C@H](N(C)C)[C@H]2O)[C@](C)(OC)C[C@@H](C)C(=O)[C@H](C)[C@@H](O)[C@]1(C)O [Clarithromycin],IC50,"[1]; non-methylated ribosome, read-out: IC50 ribosome",0.354 µM
same,IC50,"[2]; methylated ribosome, read-out: IC50 methylated ribosome",88.1 µM
same,MIC,[3]; listed as clarithromycin,8 µM
same,MIC,[3],2 µM
same,MIC,[12]; [20],0.1 µM
same,MIC80,[18]; Without induction,2 µM
same,MIC80,[18]; overnight pre-incubation with SEQ-9 0.125µg/ml,4 µM
same,MIC80,[18]; overnight pre-incubation with SEQ-9 0.25µg/ml,8 µM
same,MIC80,[18]; overnight pre-incubation with clarithromycin 0.125µg/ml,8 µM
same,MIC80,[18]; overnight pre-incubation with clarithromycin 0.25µg/ml,8 µM
same,erm37 mRNA fold change,[19],57 fold change

# Source: publication PMC9994261 (Cell, 2023)
